Laboratory results as given in patent publication US10100052B2, “Compounds for the treatment of hepatitis B virus infection” (Gilead Sciences, Inc., priority 2016, dated 2018).

What was measured:
[1] = In vitro metabolic stability, hepatocytes (rat); assay type: in vitro ADME; settings: rat hepatocytes 1×10^6 cells/mL, 2 μM compound; read-out: Hepatocyte Stability T1/2 Rat (converted)
Description: (§1) For hepatocyte stability incubations, cells were obtained from BioreclamationIVT (Baltimore, Md.), thawed according to the manufacturer's directions, and resuspended to a final concentration of 1×10^6 cells/mL in Krebs-Henseleit buffer prewarmed to 37° C. The total cell count and the proportion of viable cells were determined by Trypan Blue dye exclusion using a hemocytometer. The final concentration of test compounds and positive controls was 2 μM. Incubations were carried out in duplicate wells of a 24-well plate out with gentle shaking at 37° C. under a humid atmosphere of 95% air/5% CO2 (v/v). Aliquots (50 μL) were removed after 0, 1, 3, and 6 hours and added to 100 μL quenching solution. Samples were then processed and analyzed in a manner similar to the microsomal stability samples.
(§2) Quantification of test compounds and positive controls were performed using analyte/internal standard peak area ratios (PAR) measured on a Q-Exactive mass spectrometer (Thermo Scientific, San Jose, Calif.) coupled to an Aria Transcend LX-4 multiplex UHPLC system (Thermo Scientific, San Jose, Calif.). […] Half-lives of compounds in the incubations were calculated from extracted data using GMSU/QuickCalc (Gubbs, Inc.) and data are summarized in the following Table 3.

[2] = In vitro metabolic stability, hepatocytes (human); assay type: in vitro ADME; settings: human hepatocytes 1×10^6 cells/mL, 2 μM compound; read-out: Hepatocyte Stability T1/2 Human (converted)
Description: as §1, §2

| SMILES | half-life at 2 μM [1] [h] | half-life at 2 μM [2] [h] |
| --- | --- | --- |
| COCCCOc1cc2c(cc1Cl)-c1cc(=O)c(C(=O)O)cn1[C@H](C1(C)CC1)C2 [Comparative Example 1] | 7 | 8.9 |
| COCCCOc1cc2c(cc1Cl)-c1cc(=O)c(C(=O)O)cn1N(C(C)(C)C)C2 [Example 2, 6-(tert-Butyl)-10-chloro-9-(3-methoxypropoxy)-2-oxo-6,7-dihydro-2H-pyrido[2,1-a]-phthalazine-3-carboxylic acid] | > 39.5 | 26.6 |
